Test results as given in ChEMBL document CHEMBL1201862, “PubChem BioAssay data set” (2004).
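Exposure lasted 48 hours, with cells grown in 96-well plates and compounds tested at five concentrations. At the GI50, growth is halved.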 The source made the active and inactive calls. Cut-off read from the data, not from the text of the source: active = GI50 up to about 1.1 µM and inactive = higher.

How the values were obtained:
Test in all cases: NCI tumour cell line growth inhibition, 48 h
786-0 = tested on: 786-0
A498 = tested on: A498
A549 = tested on: A549
ACHN = tested on: ACHN
CAKI-1 = tested on: CAKI-1
CCRF-CEM = tested on: CCRF-CEM
COLO 205 = tested on: COLO 205
DLD-1 = tested on: DLD-1
DMS-114 = tested on: DMS-114
DMS-273 = tested on: DMS-273
EKVX = tested on: EKVX
HCC 2998 = tested on: HCC 2998
HCT-116 = tested on: HCT-116
HCT-15 = tested on: HCT-15
HL-60 = tested on: HL-60
HOP-18 = tested on: HOP-18
HOP-62 = tested on: HOP-62
HOP-92 = tested on: HOP-92
IGROV-1 = tested on: IGROV-1
K562 = tested on: K562
KM-20L2 = tested on: KM-20L2
KM12 = tested on: KM12
LOX IMVI = tested on: LOX IMVI
LXFL 529 = tested on: LXFL 529
M14 = tested on: M14
M19-MEL = tested on: M19-MEL
MOLT-4 = tested on: MOLT-4
Malme-3M = tested on: Malme-3M
NCI-H23 = tested on: NCI-H23
NCI-H460 = tested on: NCI-H460
NCI-H522 = tested on: NCI-H522
OVCAR-3 = tested on: OVCAR-3
OVCAR-4 = tested on: OVCAR-4
OVCAR-5 = tested on: OVCAR-5
OVCAR-8 = tested on: OVCAR-8
RPMI-8226 = tested on: RPMI-8226
RXF 393 = tested on: RXF 393
RXF 631 = tested on: RXF 631
SF-268 = tested on: SF-268
SF-295 = tested on: SF-295
SF-539 = tested on: SF-539
SK-MEL-28 = tested on: SK-MEL-28
SK-MEL-2 = tested on: SK-MEL-2
SK-MEL-5 = tested on: SK-MEL-5
SK-OV-3 = tested on: SK-OV-3
SN12C = tested on: SN12C
SNB-19 = tested on: SNB-19
SNB-75 = tested on: SNB-75
SNB-78 = tested on: SNB-78
SW-620 = tested on: SW-620
TK-10 = tested on: TK-10
U-251 = tested on: U-251
UACC-257 = tested on: UACC-257
UACC-62 = tested on: UACC-62
UO-31 = tested on: UO-31
XF498 = tested on: XF498
HT-29 = tested on: HT-29
NCI-H226 = tested on: NCI-H226
SR = tested on: SR

Compound: CC1CC(c2ccccc2)=Nc2ccccc2S1(=O)=O (stereo not given)
- GI50 (786-0): 17.2 µM (inactive)
- GI50 (A498): 14.8 µM (inactive)
- GI50 (A549): 23.6 µM (inactive)
- GI50 (ACHN): 16 µM (inactive)
- GI50 (CAKI-1): 22 µM (inactive)
- GI50 (CCRF-CEM): 19.7 µM (inactive)
- GI50 (COLO 205): 20.4 µM (inactive)
- GI50 (DLD-1): 15.1 µM (inactive)
- GI50 (DMS-114): 20.9 µM (inactive)
- GI50 (DMS-273): 20.1 µM (inactive)
- GI50 (EKVX): 20.4 µM (inactive)
- GI50 (HCC 2998): 5.2 µM (inactive)
- GI50 (HCT-116): 1.75 µM (inactive)
- GI50 (HCT-15): 24.1 µM
- GI50 (HL-60): 21 µM (inactive)
- GI50 (HOP-18): 13.9 µM (inactive)
- GI50 (HOP-62): 20.3 µM (inactive)
- GI50 (HOP-92): 27.9 µM (inactive)
- GI50 (IGROV-1): 17.7 µM (inactive)
- GI50 (K562): 19.4 µM (inactive)
- GI50 (KM-20L2): 17.8 µM (inactive)
- GI50 (KM12): 16.3 µM (inactive)
- GI50 (LOX IMVI): 17.3 µM (inactive)
- GI50 (LXFL 529): 15.3 µM (inactive)
- GI50 (M14): 20.7 µM (inactive)
- GI50 (M19-MEL): 14.9 µM (inactive)
- GI50 (MOLT-4): 16.8 µM (inactive)
- GI50 (Malme-3M): 17.9 µM (inactive)
- GI50 (NCI-H23): 16.6 µM (inactive)
- GI50 (NCI-H460): 16.3 µM (inactive)
- GI50 (NCI-H522): 17.3 µM (inactive)
- GI50 (OVCAR-3): 18.5 µM (inactive)
- GI50 (OVCAR-4): 19 µM (inactive)
- GI50 (OVCAR-5): 18.6 µM (inactive)
- GI50 (OVCAR-8): 21.1 µM (inactive)
- GI50 (RPMI-8226): 2.16 µM (inactive)
- GI50 (RXF 393): 15.3 µM (inactive)
- GI50 (RXF 631): > 10 µM (inactive)
- GI50 (SF-268): 16.9 µM (inactive)
- GI50 (SF-295): 20.2 µM (inactive)
- GI50 (SF-539): 18.4 µM (inactive)
- GI50 (SK-MEL-28): 16.3 µM (inactive)
- GI50 (SK-MEL-2): 14.8 µM (inactive)
- GI50 (SK-MEL-5): 17.9 µM (inactive)
- GI50 (SK-OV-3): 19.7 µM (inactive)
- GI50 (SN12C): 16.6 µM (inactive)
- GI50 (SNB-19): 14.3 µM (inactive)
- GI50 (SNB-75): 19.2 µM (inactive)
- GI50 (SNB-78): 15 µM (inactive)
- GI50 (SW-620): 16.2 µM (inactive)
- GI50 (TK-10): 23 µM (inactive)
- GI50 (U-251): 18.1 µM (inactive)
- GI50 (UACC-257): 11.6 µM (inactive)
- GI50 (UACC-62): 20.5 µM (inactive)
- GI50 (UO-31): 15.6 µM (inactive)
- GI50 (XF498): 18.6 µM (inactive)

Compound: C[C@]12CCC[C@H](OC=O)C1(O)C[C@H](C(=O)O)CC2 (stereo not given in full)
- GI50 (786-0): > 100 µM (inactive)
- GI50 (A498): > 100 µM (inactive)
- GI50 (A549): > 100 µM (inactive)
- GI50 (ACHN): > 100 µM (inactive)
- GI50 (CAKI-1): > 100 µM (inactive)
- GI50 (CCRF-CEM): > 100 µM (inactive)
- GI50 (COLO 205): > 100 µM (inactive)
- GI50 (DLD-1): > 100 µM (inactive)
- GI50 (DMS-114): > 100 µM (inactive)
- GI50 (DMS-273): > 100 µM (inactive)
- GI50 (EKVX): 19.8 µM (inactive)
- GI50 (HCC 2998): > 100 µM (inactive)
- GI50 (HCT-116): > 100 µM (inactive)
- GI50 (HCT-15): > 100 µM
- GI50 (HL-60): > 100 µM (inactive)
- GI50 (HOP-18): > 100 µM (inactive)
- GI50 (HOP-62): > 100 µM (inactive)
- GI50 (HOP-92): > 100 µM (inactive)
- GI50 (HT-29): > 100 µM (inactive)
- GI50 (IGROV-1): > 100 µM (inactive)
- GI50 (K562): > 100 µM (inactive)
- GI50 (KM-20L2): 19 µM (inactive)
- GI50 (KM12): > 100 µM (inactive)
- GI50 (LOX IMVI): > 100 µM (inactive)
- GI50 (LXFL 529): > 100 µM (inactive)
- GI50 (M14): > 100 µM (inactive)
- GI50 (M19-MEL): > 100 µM (inactive)
- GI50 (MOLT-4): > 100 µM (inactive)
- GI50 (Malme-3M): > 100 µM (inactive)
- GI50 (NCI-H226): > 100 µM (inactive)
- GI50 (NCI-H23): > 100 µM (inactive)
- GI50 (NCI-H460): > 100 µM (inactive)
- GI50 (NCI-H522): > 100 µM (inactive)
- GI50 (OVCAR-3): > 100 µM (inactive)
- GI50 (OVCAR-4): > 100 µM (inactive)
- GI50 (OVCAR-5): > 100 µM (inactive)
- GI50 (OVCAR-8): > 100 µM (inactive)
- GI50 (RPMI-8226): > 100 µM (inactive)
- GI50 (RXF 393): > 100 µM (inactive)
- GI50 (RXF 631): > 100 µM (inactive)
- GI50 (SF-268): > 100 µM (inactive)
- GI50 (SF-295): > 100 µM (inactive)
- GI50 (SF-539): > 100 µM (inactive)
- GI50 (SK-MEL-28): > 100 µM (inactive)
- GI50 (SK-MEL-2): > 100 µM (inactive)
- GI50 (SK-MEL-5): > 100 µM (inactive)
- GI50 (SK-OV-3): > 100 µM (inactive)
- GI50 (SN12C): > 100 µM (inactive)
- GI50 (SNB-19): > 100 µM (inactive)
- GI50 (SNB-75): > 100 µM (inactive)
- GI50 (SNB-78): > 100 µM (inactive)
- GI50 (SR): > 100 µM (inactive)
- GI50 (SW-620): > 100 µM (inactive)
- GI50 (TK-10): > 100 µM (inactive)
- GI50 (U-251): > 100 µM (inactive)
- GI50 (UACC-257): > 100 µM (inactive)
- GI50 (UACC-62): 16.5 µM (inactive)
- GI50 (UO-31): > 100 µM (inactive)
- GI50 (XF498): > 100 µM (inactive)
